Test results taken from patent publication US10689354B2, “Aminoazole derivative” (Teijin Pharma Limited, priority 2015, dated 2020).

Experiments:
[1] = target: T1, androgen receptor (AR-LBD) (Rattus norvegicus, UniProt P15207); assay: Evaluation of androgen receptor affinity (PolarScreen Androgen Receptor Competitor Assay Kit, Red; fluorescence polarization); settings: 22° C. for 5 hours, relative to binding rate of 1 μM DHT, read-out: AR affinity (pEC50) (converted)
T1 construct: 5 μL of 2×AR-LBD/Fluoromone AL Red Complex contained in the kit; purchased Invitrogen
T1 sequence (P15207 651-882 limits assumed): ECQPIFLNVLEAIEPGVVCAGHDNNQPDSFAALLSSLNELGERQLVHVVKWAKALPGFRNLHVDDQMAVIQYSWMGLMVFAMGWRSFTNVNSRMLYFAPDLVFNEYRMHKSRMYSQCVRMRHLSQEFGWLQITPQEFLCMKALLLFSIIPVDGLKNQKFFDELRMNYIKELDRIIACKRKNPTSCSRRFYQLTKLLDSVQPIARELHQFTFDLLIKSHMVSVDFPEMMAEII
Procedure, shortened: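 Test compound and the 2× AR-LBD/Fluoromone AL Red complex were combined in duplicate wells. After reacting 5 h at 22° C, polarization was measured. pEC50 was derived by 4-parameter fitting, normalizing to binding obtained with 1 μM dihydrotestosterone.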

human androgen receptor = target: T2, human androgen receptor (Homo sapiens, UniProt P10275); assay: Reporter assay of an androgen receptor responsive sequence (luciferase, transiently transfected HEK293 cells); assay type: cell-based; settings: 24 hours incubation, relative to activity of 100 nM DHT, read-out: AR transcriptive activity (pEC50) (converted)
T2 construct: expressed in transfected cells; host or cells: HEK293
T2 sequence (P10275 1-920): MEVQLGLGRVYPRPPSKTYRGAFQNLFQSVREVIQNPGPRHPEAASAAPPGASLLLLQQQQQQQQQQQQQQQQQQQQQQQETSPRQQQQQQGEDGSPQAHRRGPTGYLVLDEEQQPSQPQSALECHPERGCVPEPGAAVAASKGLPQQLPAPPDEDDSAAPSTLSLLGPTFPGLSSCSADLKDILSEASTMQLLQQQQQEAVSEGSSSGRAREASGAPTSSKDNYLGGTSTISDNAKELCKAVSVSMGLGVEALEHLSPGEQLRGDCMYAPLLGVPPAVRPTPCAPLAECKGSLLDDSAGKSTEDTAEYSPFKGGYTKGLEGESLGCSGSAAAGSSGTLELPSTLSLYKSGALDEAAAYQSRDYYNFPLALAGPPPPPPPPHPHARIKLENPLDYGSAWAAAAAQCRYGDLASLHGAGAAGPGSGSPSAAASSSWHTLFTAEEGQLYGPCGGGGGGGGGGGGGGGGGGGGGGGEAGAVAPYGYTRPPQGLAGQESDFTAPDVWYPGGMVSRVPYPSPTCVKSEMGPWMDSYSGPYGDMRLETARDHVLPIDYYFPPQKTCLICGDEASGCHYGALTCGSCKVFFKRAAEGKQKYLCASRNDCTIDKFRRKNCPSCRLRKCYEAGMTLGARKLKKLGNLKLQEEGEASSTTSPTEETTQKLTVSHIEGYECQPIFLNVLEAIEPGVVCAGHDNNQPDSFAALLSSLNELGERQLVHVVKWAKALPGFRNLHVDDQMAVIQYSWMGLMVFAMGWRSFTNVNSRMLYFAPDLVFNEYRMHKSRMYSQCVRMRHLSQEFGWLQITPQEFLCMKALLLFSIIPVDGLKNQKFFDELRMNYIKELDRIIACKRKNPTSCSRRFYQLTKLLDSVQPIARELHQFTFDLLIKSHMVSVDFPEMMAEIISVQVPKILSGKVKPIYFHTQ
Procedure, shortened: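 Agonism scored as pEC50, fitted by 4-parameter curve against the response to 100 nM DHT, from dual-luciferase readout after 24 h compound treatment. Cells were HEK293 co-transfected (3 h) with human AR expression vector, androgen-responsive firefly reporter and Renilla control, in charcoal-stripped serum.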

Compound | EC50 [1] [µM] | EC50 (human androgen receptor) [µM]
COc1ccc(F)cc1CN(c1ccc(C#N)cc1)c1nc(C(=O)NS(C)(=O)=O)c(C)s1 [Compound 105, 2-[4-cyano-N-[(5-fluoro-2-methoxy-phenyl)methyl]anilino]-5-methyl-N-methylsulfonyl-thiazole-4-carboxamide] | 0.126 | 0.316
Cc1sc(N(Cc2ccc(F)cc2Cl)c2ccc(C#N)cc2)nc1C(=O)NS(C)(=O)=O [Compound 106, 2-[N-[(2-chloro-4-fluoro-phenyl)methyl]-4-cyano-anilino]-5-methyl-N-methylsulfonyl-thiazole-4-carboxamide] | 0.0794 | 0.316
Cc1sc(N(Cc2cccc(Cl)c2F)c2ccc(C#N)cc2)nc1C(=O)NS(C)(=O)=O [Compound 107, 2-[N-[(3-chloro-2-fluoro-phenyl)methyl]-4-cyano-anilino]-5-methyl-N-methylsulfonyl-thiazole-4-carboxamide] | 0.0501 | 0.0316
Cc1sc(N(Cc2cc(F)ccc2Cl)c2ccc(C#N)cc2)nc1C(=O)NS(C)(=O)=O [Compound 108, 2-[N-[(2-chloro-5-fluoro-phenyl)methyl]-4-cyano-anilino]-5-methyl-N-methylsulfonyl-thiazole-4-carboxamide] | 0.1 | 0.501
Cc1sc(N(Cc2cc(F)cc(F)c2F)c2ccc(C#N)cc2)nc1C(=O)NS(C)(=O)=O [Compound 109, 2-[4-cyano-N-[(2,3,5-trifluorophenyl)methyl]anilino]-5-methyl-N-methylsulfonyl-thiazole-4-carboxamide] | 0.1 | 0.2
Cc1sc(N(Cc2cc(F)c(F)cc2F)c2ccc(C#N)cc2)nc1C(=O)NS(C)(=O)=O [Compound 110, 2-[4-cyano-N-[(2,4,5-trifluorophenyl)methyl]anilino]-5-methyl-N-methylsulfonyl-thiazole-4-carboxamide] | 0.0631 | 0.126
COc1c(F)ccc(CN(c2ccc(C#N)cc2)c2nc(C(=O)NS(C)(=O)=O)c(C)s2)c1F [Compound 111, 2-[4-cyano-N-[(2,4-difluoro-3-methoxy-phenyl)methyl]anilino]-5-methyl-N-methylsulfonyl-thiazole-4-carboxamide] | 0.0501 | 0.0631
COc1ccc(CN(c2ccc(C#N)cc2)c2nc(C(=O)NS(C)(=O)=O)c(C)s2)c(F)c1F [Compound 112, 2-[4-cyano-N-[(2,3-difluoro-4-methoxy-phenyl)methyl]anilino]-5-methyl-N-methylsulfonyl-thiazole-4-carboxamide] | 0.0316 | 0.0794
Cc1sc(N(Cc2ccc(SC(F)(F)F)cc2)c2ccc(C#N)cc2)nc1C(=O)NS(C)(=O)=O [Compound 113, 2-[4-cyano-N-[[4-(trifluoromethylsulfanyl)phenyl]methyl]anilino]-5-methyl-N-methylsulfonyl-thiazole-4-carboxamide] | 0.0251 | 0.158
Cc1sc(N(Cc2ccc3nsnc3c2)c2ccc(C#N)cc2)nc1C(=O)NS(C)(=O)=O [Compound 114, 2-[N-(2,1,3-benzothiadiazole-5-ylmethyl)-4-cyano-anilino]-5-methyl-N-methylsulfonyl-thiazole-4-carboxamide] | 0.126 | 0.158
Cc1ccc(CN(c2ccc(C#N)cc2)c2nc(C(=O)NS(C)(=O)=O)c(C)s2)cc1F [Compound 115, 2-[4-cyano-N-[(3-fluoro-4-methyl-phenyl)methyl]anilino]-5-methyl-N-methylsulfonyl-thiazole-4-carboxamide] | 0.0316 | 0.0316
Cc1sc(N(Cc2ccc(Cl)c(F)c2)c2ccc(C#N)cc2)nc1C(=O)NS(C)(=O)=O [Compound 116, 2-[N-[(4-chloro-3-fluoro-phenyl)methyl]-4-cyano-anilino]-5-methyl-N-methylsulfonyl-thiazole-4-carboxamide] | 0.0316 | 0.0251
